How the values were obtained:
MMP-9 = assay: Zymography of MMP-9 from pre-treated SW1353 cells; type: cell-based, human; conditions: 24 h
Method: (§1) At the beginning of the experiment, the cells were pre-treated with 100 ng/mL PMA or 10 ng/mL IL-1β for 24 hours. The cells were then treated with 0.1 μM Dexamethasone, various astragaloside compounds (0.1 μM) or extracts of Astragalus membranaceous (1 μg/mL) at indicated dosages for another 24 hours. For control sample, 0.1% DMSO was used as a negative control for these experiments. The conditioned culture mediums were then centrifuged, 2-fold concentrated and collected for assay of collagens or MMPs secreted into the culture medium.
(§2) The proteolytic activities of MMPs from SW1353 cells were measured essentially as described previously (Circ Res, 1999; 85:906-911). The cells were lysed in lysis buffer (1% Triton X-100, 50 mM Tris-Cl, pH 7.4, 180 mM NaCl, 1 mM EDTA). The samples were measured for their protein concentration using the bicinchoninic acid (BCA) protein assay kit as described. Samples of concentrated conditioned medium and cell lysates were mixed with non-reducing electrophoresis loading buffer and subjected to electrophoresis under non-reducing conditions. The electrophoresis was carried out on a 10% SDS-PAGE co-polymerized with 2 mg/mL gelatin or casein (Sigma, St. Louis, Mo. USA). For zymographic analysis of pro-MMP-2 and activated MMP-2, the total 20 μg of culture medium were used for electrophoresis. Following electrophoresis, renaturation of the proteins was achieved by incubating the gels twice in 25 g/L Triton X-100 at room temperature for 10 min. Subsequently the gels were incubated in 50 mM Tris-HCl, pH 7.5 containing 0.2 M NaCl, 0.02% Brij35 and 10 mM CaCl2 at 37° C. for 18 hours. After the gels were stained with Coomassie Brilliant Blue R-250 and destained, zones of proteolytic activities became visible as transparent bands in the stained gel. In order to obtain higher sensitivity, the gels were further destained in a solution of 1% Triton X-100 (1 to 2 hours). This procedure increased the signal-to-noise ratio, allowing the visualization of faint gelatinase bands at 92 kDa, 125 kDa and greater than 200 kDa. Zymograms were read using a Molecular Dynamics (Sunnyvale, Calif., USA) computing laser densitometer with Image Quant software.

MMP-1 [1] = assay: Zymography of MMP-1 from pre-treated SW1353 cells; type: cell-based, human; conditions: 0.1 μM, 24 h
Method: as §1, §2

MMP-1 [2] = assay: Western blot of MMP-1 in PMA- or IL-1β-pre-treated SW1353 cells (Example 6); type: cell-based, human; conditions: 48 h
Method: (§3) The cells were then plated on 6-cm dishes at a density of 1×10^6 cells/dish for 24 hours prior to any treatment. At the beginning of the experiment, the cells were pre-treated with 100 ng/mL PMA or 10 ng/mL IL-1β for 24 hours. The cells were then treated 0.1 μM Dexamethasone with, various astragaloside compounds (0.1 μM) or extracts of Astragalus membranaceous (1 μg/mL) at indicated dosages for another 48 hours. For control sample, 0.1% DMSO was used as a negative control for these experiments. The conditioned culture mediums were then centrifuged, 2-fold concentrated and collected for assay of collagens or MMPs secreted into the culture medium.
(§4) Western blotting analysis was carried out on both cultured medium and cell lysates, as follows. The cells were washed and lysed in 0.2 mL of lysis buffer (1% NP-40, 50 mM Tris-HCl, pH 7.4, 180 mM NaCl, 1 mM EDTA, 1 mM PMSF, 1 mM NaF, 10 mM Na3VO4) for 30 min at 4° C. After centrifuging at 17500 g for 15 min, the supernatants of cell lysate were also collected. Protein concentration of the samples were measured using the bicinchoninic acid (BCA) protein assay kit according to the manufacturer's protocol (Pierce, Rockford, Ill., USA). Equal amount of protein samples of concentrated conditioned medium (100 μg) or cell lysate supernatants (50 μg) were mixed with an appropriate volume of 4×SDS sampling buffer and separated by 8% SDS-PAGE gel. The protein bands separated in the SDS-PAGE gel were blotted onto a polyvinylidene fluoride (PVDF) membrane. The blotted PVDF membrane was washed twice and blocked in freshly prepared Tris-buffered saline (TBS) containing 0.1% Tween-20 and 7% skim milk (TBST) for 2 hours at room temperature. The PVDF membrane was then incubated with either antibodies against collagen I and III or the housekeeping protein α-tubulin (Santa Cruz Biotechnology, Santa Cruz, Calif.) for 18 hours at 4° C. Horseradish peroxidase-conjugated anti-goat antibody was used as secondary antibody. Signals were visualized by an enhanced chemiluminescence kit (Clonetech, Palo Alto, Calif., USA) followed by exposure to X-ray films.

MMP-2 = assay: Zymography of MMP-2 from pre-treated SW1353 cells; type: cell-based, human; conditions: 24 h
Method: as §1, §2

MMP-13 [3] = assay: Western blot of MMP-13 in PMA- or IL-1β-pre-treated SW1353 cells (Example 6); type: cell-based, human; conditions: 0.1 μM, 48 h
Method: as §3
as §4, with “The PVDF membrane was then incubated with either antibodies against collagen I and III or the housekeeping protein α-tubulin (Santa Cruz Biotechnology, Santa Cruz, Calif.) for 18 hours at 4° C.” left out

HCH cells = assay: Proline uptake assay; type: cell-based, human; conditions: astragalosides 0.1 μM, 24 h, Ctrl 1.00
Method: The proline uptake assay was carried out as described below, generally in accordance with the method disclosed in Biochim Biophys Acta. 1104:283-292, 1992, the contents of which are incorporated by reference. Briefly, HCH cells were seeded into a 24-well plate at a density of 3×10^4 cells per well and cultured for 24 hours. The cells were then treated in the absence (solvent control) or presence of the astragalosides (0.1 μM) or Astragalus membranaceous extracts (1.0 μg/mL) for another 24 hours. The treated cells were then washed once with PBS and incubated in amino acid free medium (AAFM) for another 30 min. The treated cells were then replaced with fresh AAFM containing 50 μg/mL of ascorbate and total of 0.5 mM of L-proline containing 1 μCi [^3H] Proline (American Radiolabelled Chemicals Inc, ARC, St. Louis, Mo., USA). At designated time intervals, the cells were washed with AAFM containing cold proline and then lysed in 200 μL of 2% SDS. Cell lysates were centrifuged at 15000 g for 15 min. Intracellular proline uptaken by the cells was determined by transferring 10 μL of the cell lysate to filter-bottomed UniFilter plates (Perkim-Elmer) and counting. The samples were measured for their protein concentrations using the BCA protein assay kit as described above. The amount of proline accumulated in the cells was calculated and normalized to protein concentration. And cellular uptake rate was expressed as nmole of L-proline per minute per […] of cell protein (nmole/min/μg).

MMP-13 [4] = assay: Western blot of MMP-13 in pre-treated human chondrocytes (HCHs); type: cell-based; conditions: 48 h
MMP-1 [5] = assay: Western blot of MMP-1 in pre-treated human chondrocytes (HCHs); type: cell-based; conditions: 48 h
Type II Collagen = assay: Western blot of Type II Collagen in pre-treated human chondrocytes (HCHs); type: cell-based; conditions: 48 h
[6] = IL-1β-pre-treated SW1353, compounds 0.1 μM
[7] = IL-1β-pre-treated SW1353 cell extract, compounds 0.1 μM
[8] = PMA-pre-treated SW1353 cell extract, 0.1 μM
[9] = PMA-pre-treated SW1353 culture medium, 0.1 μM
[10] = IL-1β-pre-treated SW1353 cell extract
[11] = PMA-pre-treated SW1353 culture medium
[12] = PMA-pre-treated HCH culture medium, 0.1 μM
[13] = IL-1β-pre-treated HCH culture medium, compounds 0.1 μM
[14] = IL-1β-pre-treated SW1353 culture medium, 0.1 μM
[15] = IL-1β-pre-treated SW1353 culture medium

Compound | MMP-9, Zymography, relative to Ctrl 1.00 (MMP-9; [6]) | MMP-9, Zymography, relative to Ctrl 1.00 (MMP-9; PMA-pre-treated SW1353, 0.1 μM) | MMP-1, Zymography, relative to Ctrl 1.00 (MMP-1 [1]; IL-1β-pre-treated SW1353) | MMP-1, Zymography, relative to Ctrl 1.00 (MMP-1 [1]; PMA-pre-treated SW1353) | MMP-1, Western blot, relative to Ctrl 1.00 (MMP-1 [2]; [7]) | MMP-1, Western blot, relative to Ctrl 1.00 (MMP-1 [2]; [8]) | MMP-1, Western blot, relative to Ctrl 1.00 (MMP-1 [2]; [9]) | MMP-2, Zymography, relative to Ctrl 1.00 (MMP-2; [6]) | MMP-2, Zymography, relative to Ctrl 1.00 (MMP-2; PMA-pre-treated SW1353, 0.1 μM) | MMP-13, Western blot, relative to Ctrl 1.00 (MMP-13 [3]; [10]) | MMP-13, Western blot, relative to Ctrl 1.00 (MMP-13 [3]; [11]) | MMP-13, Western blot, relative to Ctrl 1.00 (MMP-13 [4]; [12]) | MMP-1, Western blot, relative to Ctrl 1.00 (MMP-1 [5]; [13]) | MMP-1, Western blot, relative to Ctrl 1.00 (MMP-1 [5]; [12]) | Type II Collagen, Western blot, relative to Ctrl 1.00 (Type II Collagen; [13]) | Type II Collagen, Western blot, relative to Ctrl 1.00 (Type II Collagen; [12]) | MMP-1, Western blot, relative to Ctrl 1.00 (MMP-1 [2]; [14]) | MMP-13, Western blot, relative to Ctrl 1.00 (MMP-13 [4]; [13]) | MMP-13, Western blot, relative to Ctrl 1.00 (MMP-13 [3]; [15]) | further results
Astragaloside I [AS1] | 0.79 | 1.23 | 0.86 | 0.85 | 0.66 | 0.86 | 0.48 | 0.76 | 0.87 | 0.37 | 1.15 | – | – | – | – | – | – | – | – | –
CC(C)(O)[C@@H]1CC[C@](C)([C@H]2[C@@H](O)C[C@@]3(C)[C@@H]4C[C@H](O[C@@H]5O[C@H](CO)[C@@H](O)[C@H](O)[C@H]5O)[C@H]5C(C)(C)[C@@H](O[C@@H]6OC[C@@H](O)[C@H](O)[C@H]6O[C@@H]6O[C@H](CO)[C@@H](O)[C@H](O)[C@H]6O)CC[C@@]56C[C@@]46CC[C@]23C)O1 [AS6, Astragaloside VI] | – | – | – | – | 0.63 | – | 0.40 | – | – | – | 0.93 | 0.26 | 0.97 | 0.51 | 1.34 | 1.74 | – | – | – | proline uptake, Relative fold (HCH cells): 1.69 fold; MMP-13, Western blot, relative to Ctrl 1.00 (MMP-13 [4]; PMA-pre-treated HCH cell extract, 0.1 μM): 0.54
CC(C)(O)[C@@H]1CC[C@](C)([C@H]2[C@@H](O)C[C@@]3(C)[C@@H]4C[C@H](O)[C@H]5C(C)(C)[C@@H](O[C@@H]6OC[C@@H](O)[C@H](O)[C@H]6O[C@@H]6O[C@H](CO)[C@@H](O)[C@H](O)[C@H]6O)CC[C@@]56C[C@@]46CC[C@]23C)O1 [AS3, Astragaloside III] | – | 0.87 | – | 0.89 | 0.39 | – | – | – | 0.90 | 0.86 | – | – | – | – | 1.03 | – | 0.09 | 0.75 | – | –
C[C@@H]1C[C@H]2[C@@H]3CCC4=CC(=O)C=C[C@]4(C)[C@@]3(F)[C@@H](O)C[C@]2(C)[C@@]1(O)C(=O)CO [Dex, Dexamethasone, reference compound] | 0.58 | 0.92 | 0.80 | 0.87 | 0.26 | 0.38 | 0.60 | 0.42 | 0.99 | 0.64 | 0.46 | 0.74 | 0.28 | 0.28 | 1.20 | 1.20 | 0.38 | 0.74 | 0.29 | MMP-13, Western blot, relative to Ctrl 1.00 (MMP-13 [3]; PMA-pre-treated SW1353 cell extract): 0.48
CC(=O)O[C@H]1[C@H](O[C@H]2CC[C@]34C[C@]35CC[C@]3(C)[C@@H]([C@@]6(C)CC[C@@H](C(C)(C)O)O6)[C@@H](O)C[C@@]3(C)[C@@H]5C[C@H](O[C@@H]3O[C@H](CO)[C@@H](O)[C@H](O)[C@H]3O)[C@H]4C2(C)C)OC[C@@H](O)[C@@H]1O [AS2, Astragaloside II] | 0.79 | – | 0.77 | – | 0.86 | 0.71 | – | 0.79 | – | 0.49 | – | – | – | – | – | – | – | – | 0.45 | –

— US8168596B2, “Use of cycloartane compounds for treating arthritis” (NuLiv Holding Inc., priority 2008, dated 2012)
